Laboratory results as given in the Kinase Knowledgebase extract (Sharma et al. 2016).

Target: PIK3CD (Human) (UniProt O00329)
Test: Assessment of PIK3CD Kinase Activity (Scintillation Proximity Assay)

Chain of PIK3CD (Human) (O00329 whole entry, looked up): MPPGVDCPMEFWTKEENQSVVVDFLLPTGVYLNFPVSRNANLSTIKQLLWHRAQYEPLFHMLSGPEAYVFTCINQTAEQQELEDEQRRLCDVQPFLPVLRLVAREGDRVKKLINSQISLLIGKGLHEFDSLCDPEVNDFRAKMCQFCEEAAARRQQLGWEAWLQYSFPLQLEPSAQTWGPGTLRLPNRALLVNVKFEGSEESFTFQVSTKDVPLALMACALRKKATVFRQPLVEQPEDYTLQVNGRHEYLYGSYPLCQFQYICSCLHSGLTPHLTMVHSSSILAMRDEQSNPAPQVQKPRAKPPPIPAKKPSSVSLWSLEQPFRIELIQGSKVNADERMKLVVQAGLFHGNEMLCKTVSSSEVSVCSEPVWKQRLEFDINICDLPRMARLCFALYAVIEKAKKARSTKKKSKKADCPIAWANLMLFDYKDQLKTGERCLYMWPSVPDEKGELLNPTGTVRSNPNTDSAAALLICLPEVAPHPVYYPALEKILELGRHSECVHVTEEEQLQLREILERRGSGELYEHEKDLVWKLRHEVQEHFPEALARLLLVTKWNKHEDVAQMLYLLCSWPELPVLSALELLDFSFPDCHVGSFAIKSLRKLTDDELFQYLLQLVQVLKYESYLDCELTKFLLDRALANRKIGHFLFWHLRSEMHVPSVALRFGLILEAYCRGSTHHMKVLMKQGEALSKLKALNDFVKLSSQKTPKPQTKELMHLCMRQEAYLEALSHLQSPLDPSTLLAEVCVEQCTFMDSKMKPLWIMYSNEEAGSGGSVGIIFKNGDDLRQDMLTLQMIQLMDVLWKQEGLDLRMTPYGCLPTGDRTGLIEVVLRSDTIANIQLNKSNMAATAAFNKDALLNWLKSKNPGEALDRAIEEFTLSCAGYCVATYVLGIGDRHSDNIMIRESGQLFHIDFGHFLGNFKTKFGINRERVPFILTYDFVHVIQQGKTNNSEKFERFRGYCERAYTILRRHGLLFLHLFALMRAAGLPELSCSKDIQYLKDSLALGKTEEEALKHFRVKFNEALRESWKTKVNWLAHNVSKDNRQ

SMILES	IC50
CCOc1c(C(C)n2nc(C)c3c(N)ncnc32)cc(C)c(C#N)c1C1CN(C(=O)C(C)(C)O)C1 (stereo not drawn)	≤ 10 nM
CCOc1c(C(C)n2nc(C)c3c(N)ncnc32)cc(Cl)c(C#N)c1-c1cncnc1 (stereo not drawn)	≤ 10 nM
CCOc1c(C(C)n2nc(C)c3c(N)ncnc32)cc(Cl)c(C#N)c1C1CN(C(C)CO)C1 (stereo not drawn)	≤ 10 nM
Cc1c(Cl)cc(C(C)n2nc(C)c3c(N)ncnc32)c(OCC2CC2)c1-c1ccc(C(=O)N(C)C)nc1 (stereo not drawn)	≤ 10 nM
COc1c(C(C)n2nc(C)c3c(N)ncnc32)cc(Cl)c(C)c1C1CN(C(=O)[C@H](C)O)C1 (stereo partly drawn)	≤ 10 nM
COc1c(C(C)n2nc(C)c3c(N)ncnc32)cc(Cl)c(C#N)c1C1CN(S(=O)(=O)C2CC2)C1 (stereo not drawn)	≤ 10 nM
CCOc1c(C(C)n2nc(-c3cnn(C)c3)c3c(N)ncnc32)cc(Cl)c(C)c1-c1ccc(C(=O)N(C)C)nc1 (stereo not drawn)	≤ 10 nM
COc1c(C(C)n2nc(C)c3c(N)ncnc32)cc(Cl)c(C#N)c1C1CN(C[C@H](C)O)C1 (stereo partly drawn)	≤ 10 nM
CCOc1c(C(C)n2nc(C)c3c(N)ncnc32)cc(Cl)c(C)c1-c1cncc(C(=O)N(C)C)c1 (stereo not drawn)	≤ 10 nM
COc1c(C(C)n2nc(C)c3c(N)ncnc32)cc(Cl)c(C)c1C1CN(C2CCOCC2)C1 (stereo not drawn)	≤ 10 nM
CCOc1c(C(C)n2nc(C#C[C@H](C)O)c3c(N)ncnc32)cc(Cl)c(C)c1-c1ccc(C(=O)N(C)C)nc1 (stereo partly drawn)	≤ 10 nM
CCNC(=O)N1CC(c2c(C#N)c(Cl)cc(C(C)n3nc(C)c4c(N)ncnc43)c2OC)C1 (stereo not drawn)	≤ 10 nM
COc1c(C(C)n2nc(C)c3c(N)ncnc32)cc(Cl)c(C)c1-c1cnn(C(C)C(=O)N(C)C)c1 (stereo not drawn)	≤ 10 nM
COc1c(C(C)n2nc(C)c3c(N)ncnc32)cc(Cl)c(C)c1C1CCN(C)CC1 (stereo not drawn)	≤ 10 nM
COc1c(C(C)n2nc(C)c3c(N)ncnc32)cc(Cl)c(C)c1-c1ccnc(C(=O)N(C)C)c1 (stereo not drawn)	≤ 10 nM
CCOc1c(C(C)n2nc(CO)c3c(N)ncnc32)cc(Cl)c(C)c1-c1ccc(C(=O)N(C)C)nc1 (stereo not drawn)	≤ 10 nM
COc1c(C(C)n2nc(C(F)F)c3c(N)ncnc32)cc(C#N)c(F)c1C1CN(CCO)C1 (stereo not drawn)	≤ 10 nM
COc1c(C(C)n2nc(C)c3c(N)ncnc32)cc(Cl)c(C)c1-c1cnn(CCO)c1 (stereo not drawn)	≤ 10 nM
COc1c(C(C)n2nc(C)c3c(N)ncnc32)cc(Cl)c(C#N)c1C1CNC1 (stereo not drawn)	≤ 10 nM
CCOc1c(C(C)n2nc(C)c3c(N)ncnc32)cc(Cl)c(C#N)c1C1CN(C(COC)COC)C1 (stereo not drawn)	≤ 10 nM
CCOc1c(C(C)n2nc(C)c3c(N)ncnc32)cc(Cl)c(C)c1-c1cnn(CC(=O)NC)c1 (stereo not drawn)	≤ 10 nM
COc1c(C(C)n2nc(C)c3c(N)ncnc32)cc(Cl)c(C#N)c1C1CN(C)C1 (stereo not drawn)	≤ 10 nM
COc1c(C(C)n2nc(C)c3c(N)ncnc32)cc(Cl)c(C)c1CC#N (stereo not drawn)	≤ 10 nM
COc1c(C(C)n2nc(-c3cnn(C)c3)c3c(N)ncnc32)cc(Cl)c(C)c1C1CN(CC#N)C1 (stereo not drawn)	≤ 10 nM
CCOc1c(C(C)n2nc(C)c3c(N)ncnc32)cc(Cl)c(C#N)c1C1CN(C(N)=O)C1 (stereo not drawn)	≤ 10 nM

SMILES	IC50
CCOc1c(C(C)n2nc(C)c3c(N)ncnc32)cc(Cl)c(C#N)c1-c1cncc(C#N)c1 (stereo not drawn)	≤ 10 nM
COc1c(C(C)n2nc(C)c3c(N)ncnc32)cc(Cl)c(Cl)c1C1CN(CCO)C1 (stereo not drawn)	≤ 10 nM
CCOc1c(C(C)n2nc(C)c3c(N)ncnc32)cc(Cl)c(C)c1C1CN(C(=O)c2cnn(C)c2)C1 (stereo not drawn)	≤ 10 nM
CCNC(=O)c1c(C)c(Cl)cc(C(C)n2nc(-c3cnc4[nH]ccc4c3)c3c(N)ncnc32)c1OCC (stereo not drawn)	≤ 10 nM
COc1c(C(C)n2ccc(=O)c3c(N)ncnc32)cc(Cl)c(C)c1-c1cncnc1 (stereo not drawn)	≤ 10 nM
COc1c(C(C)n2nc(C)c3c(N)ncnc32)cc(Cl)c(Cl)c1C1CN(C(C)C)C1 (stereo not drawn)	≤ 10 nM
COc1c(C(C)n2nc(C)c3c(N)ncnc32)cc(Cl)c(C)c1C1CNC(=O)O1 (stereo not drawn)	≤ 10 nM
COc1c(C(C)n2nc(C)c3c(N)ncnc32)cc(Cl)c(C#N)c1C1CN(C(C)=O)C1 (stereo not drawn)	≤ 10 nM
CCOc1c(C(C)n2nc(C)c3c(N)ncnc32)cc(Cl)c(C#N)c1C1CN(S(C)(=O)=O)C1 (stereo not drawn)	≤ 10 nM
CCOc1c(C(C)n2nc(-c3cccnc3)c3c(N)ncnc32)cc(Cl)c(C)c1-c1ccc(C(=O)N(C)C)nc1 (stereo not drawn)	≤ 10 nM
CCOc1c(C(C)n2nc(C)c3c(N)ncnc32)cc(Cl)c(C#N)c1N1CC(COC)C1 (stereo not drawn)	≤ 10 nM
CCOc1c(C(C)n2nc(C)c3c(N)ncnc32)cc(C)c(C#N)c1C1CN(C[C@H](C)O)C1 (stereo partly drawn)	≤ 10 nM
CCOc1c(C(C)n2nc(I)c3c(N)ncnc32)cc(Cl)c(C)c1-c1ccc(C(=O)N(C)C)nc1 (stereo not drawn)	≤ 10 nM
CCOc1c(C(C)n2nc(C)c3c(N)ncnc32)cc(Cl)c(C#N)c1C1CN(C(=O)OC)C1 (stereo not drawn)	≤ 10 nM
CNC(=O)c1ccc(-c2c(C)c(Cl)cc(C(C)n3nc(C)c4c(N)ncnc43)c2OC)cc1F (stereo not drawn)	≤ 10 nM
COc1c(C(C)n2nc(C)c3c(N)ncnc32)cc(Cl)c(C)c1C1CN(CC2CC2)C1 (stereo not drawn)	≤ 10 nM
COc1c(C(C)n2nc(C)c3c(N)ncnc32)cc(Cl)c(C)c1C1CN(C[C@H](C)O)C1 (stereo partly drawn)	≤ 10 nM
CCOc1c(C(C)n2nc(C)c3c(N)ncnc32)cc(C)c(C#N)c1N1CCCC1 (stereo not drawn)	≤ 10 nM
CCOc1c(C(C)n2nc(C)c3c(N)ncnc32)cc(Cl)c(C#N)c1C1CN(C(C)(C)C(N)=O)C1 (stereo not drawn)	≤ 10 nM
COc1c(C(C)n2nc(C(F)F)c3c(N)ncnc32)cc(C#N)c(C)c1C1CN(CCO)C1 (stereo not drawn)	≤ 10 nM
COc1c(C(C)n2nc(C)c3c(N)ncnc32)cc(Cl)c(C)c1-c1cnn(C2CCN(C)CC2)c1 (stereo not drawn)	≤ 10 nM
COc1c(C(C)n2nc(C)c3c(N)ncnc32)cc(Cl)c(C)c1C1CN(C[C@@H](C)O)C1 (stereo partly drawn)	≤ 10 nM
CCOc1c(C(C)n2nc(C)c3c(N)ncnc32)cc(Cl)c(F)c1C1CN(CC(F)F)C1 (stereo not drawn)	≤ 10 nM
COc1c(C(C)n2nc(C)c3c(N)ncnc32)cc(Cl)c(C)c1-c1cnn(CCN(C)C)c1 (stereo not drawn)	≤ 10 nM

More lines, now with the values ahead:

IC50	SMILES
≤ 10 nM	CCOc1c(C(C)n2cc(C)c3c(N)ncnc32)cc(Cl)c(C#N)c1C1CN(C[C@H](C)O)C1 (stereo partly drawn)
≤ 10 nM	CCOc1c(C(C)n2nc(C)c3c(N)ncnc32)cc(Cl)c(C)c1-c1ccnc(C(=O)N(C)C)c1 (stereo not drawn)
≤ 10 nM	CCOc1c(C(C)n2nc(C)c3c(N)ncnc32)cc(Cl)c(C#N)c1C1CN(C2CCC2)C1 (stereo not drawn)
≤ 10 nM	COc1c(C(C)n2nc(C)c3c(N)ncnc32)cc(Cl)c(C)c1-c1ccc(N(C)C)nc1 (stereo not drawn)
≤ 10 nM	CCOc1c(C(C)n2nc(C)c3c(N)ncnc32)cc(Cl)c(C#N)c1C1CN(CC(C)C)C1 (stereo not drawn)
≤ 10 nM	CNC(=O)CCc1c(C)c(Cl)cc(C(C)n2nc(C)c3c(N)ncnc32)c1OC (stereo not drawn)
≤ 10 nM	COc1c(C(C)n2cc(C)c(=O)c3c(N)ncnc32)cc(Cl)c(C)c1-c1ccc(C(=O)N(C)C)nc1 (stereo not drawn)
≤ 10 nM	Cc1c(Cl)cc(C(C)n2nc(C)c3c(N)ncnc32)c(OCC(F)F)c1-c1ccc(C(=O)N(C)C)nc1 (stereo not drawn)
≤ 10 nM	COc1c(C(C)n2nc(C)c3c(N)ncnc32)cc(Cl)c(C)c1-c1cncc(C(=O)N(C)C2CC2)c1 (stereo not drawn)
≤ 10 nM	COc1c(C(C)n2nc(C(F)F)c3c(N)ncnc32)cc(Cl)c(F)c1C1CN(CCO)C1 (stereo not drawn)
≤ 10 nM	COc1c(C(C)n2nc(C)c3c(N)ncnc32)cc(Cl)c(Cl)c1C1CN(C[C@H](C)O)C1 (stereo partly drawn)
≤ 10 nM	CCOc1c(C(C)n2nc(C)c3c(N)ncnc32)cc(Cl)c(C#N)c1C1CN(CCO)C1 (stereo not drawn)
≤ 10 nM	COc1c(C(C)n2nc(C)c3c(N)ncnc32)cc(Cl)c(C)c1-c1ccc(C(=O)N(C)C)c(F)c1 (stereo not drawn)
≤ 10 nM	CCOc1c(C(C)n2nc(C3CC3)c3c(N)ncnc32)cc(Cl)c(C)c1-c1ccc(C(=O)N(C)C)nc1 (stereo not drawn)
≤ 10 nM	COc1c(C(C)n2nc(C)c3c(N)ncnc32)cc(Cl)c(Cl)c1C1CN(CC(C)(C)O)C1 (stereo not drawn)
≤ 10 nM	CCOc1c(C(C)n2nc(-c3cnn(CCO)c3)c3c(N)ncnc32)cc(Cl)c(C)c1-c1ccc(C(=O)N(C)C)nc1 (stereo not drawn)
≤ 10 nM	CCOc1c(C(C)n2nc(C#C[C@@H](C)O)c3c(N)ncnc32)cc(Cl)c(C)c1-c1ccc(C(=O)N(C)C)nc1 (stereo partly drawn)
≤ 10 nM	CCOc1c(C(C)n2nc(C(F)F)c3c(N)ncnc32)cc(Cl)c(F)c1C1CN(C)C1 (stereo not drawn)
≤ 10 nM	COc1c(C(C)n2nc(C)c3c(N)ncnc32)cc(Cl)c(C)c1C1CN(CC(C)C)C1 (stereo not drawn)
≤ 10 nM	CCOc1c(C(C)n2nc(CF)c3c(N)ncnc32)cc(Cl)c(C)c1-c1ccc(C(=O)N(C)C)nc1 (stereo not drawn)

IC50	SMILES
≤ 10 nM	CCOc1c(C(C)n2nc(C)c3c(N)ncnc32)cc(C)c(C#N)c1-c1ccc(C(=O)N(C)C)nc1 (stereo not drawn)
≤ 10 nM	CCS(=O)(=O)N1CC(c2c(C#N)c(Cl)cc(C(C)n3nc(C)c4c(N)ncnc43)c2OC)C1 (stereo not drawn)
≤ 10 nM	COc1c(C(C)n2nc(C(F)F)c3c(N)ncnc32)cc(C#N)c(C)c1C1CN(C[C@@H](C)O)C1 (stereo partly drawn)
≤ 10 nM	COc1c(C(C)n2nc(C)c3c(N)ncnc32)cc(C)c(C#N)c1C1CN(C[C@H](C)O)C1 (stereo partly drawn)
≤ 10 nM	COc1c(C(C)n2nc(C)c3c(N)ncnc32)cc(Cl)c(C)c1-c1cnn(CC(=O)N(C)C)c1 (stereo not drawn)
≤ 10 nM	COc1c(C(C)n2nc(C)c3c(N)ncnc32)cc(Cl)c(C)c1C1CN(C2CCOC2)C1 (stereo not drawn)
≤ 10 nM	CCOc1c(C(C)n2nc(C)c3c(N)ncnc32)cc(Cl)c(C#N)c1C1CNC(=O)O1 (stereo not drawn)
≤ 10 nM	COc1c(C(C)n2nc(C)c3c(N)ncnc32)cc(Cl)c(C#N)c1C1CN(CCO)C1 (stereo not drawn)
≤ 10 nM	COc1c(C(C)n2nc(C)c3c(N)ncnc32)cc(Cl)c(C)c1C1CN(C(C)C#N)C1 (stereo not drawn)
≤ 10 nM	COc1c(C(C)n2nc(C)c3c(N)ncnc32)cc(Cl)c(C#N)c1C1CN(CC(C)(C)O)C1 (stereo not drawn)
≤ 10 nM	CCOc1c(C(C)n2nc(-c3cncc(C#N)c3)c3c(N)ncnc32)cc(Cl)c(C)c1-c1ccc(C(=O)N(C)C)nc1 (stereo not drawn)
≤ 10 nM	COc1c(C(C)n2nc(C)c3c(N)ncnc32)cc(Cl)c(C)c1C1CN(CC(O)C(F)(F)F)C1 (stereo not drawn)
≤ 10 nM	CCOc1c(C(C)n2nc(-c3ccn(C)n3)c3c(N)ncnc32)cc(Cl)c(C)c1-c1ccc(C(=O)N(C)C)nc1 (stereo not drawn)
≤ 10 nM	CCOc1c(C(C)n2nc(C)c3c(N)ncnc32)cc(Cl)c(F)c1C1CN(C)C1 (stereo not drawn)
≤ 10 nM	COc1c(C(C)n2nc(C)c3c(N)ncnc32)cc(Cl)c(C)c1C1CN(C(=O)C(C)(C)O)C1 (stereo not drawn)
≤ 10 nM	CCOc1c(C(C)n2nc(C)c3c(N)ncnc32)cc(Cl)c(C#N)c1C1CN(C(C)(C)CO)C1 (stereo not drawn)
≤ 10 nM	COc1c(C(C)n2nc(C)c3c(N)ncnc32)cc(Cl)c(C)c1C1CN(C2(CC#N)CCC2)C1 (stereo not drawn)
≤ 10 nM	COc1c(C(C)n2nc(C)c3c(N)ncnc32)cc(Cl)c(C)c1-c1ccnc(N(C)C)c1 (stereo not drawn)
≤ 10 nM	COc1c(C(C)n2nc(C)c3c(N)ncnc32)cc(Cl)c(C)c1-c1cncc(C(=O)N2CC(C#N)C2)c1 (stereo not drawn)
